This is an account of results in patent publication US8329719B2, “Neuroprotective agents for the prevention and treatment of neurodegenerative diseases” (Lixte Biotechnology, Inc., priority 2008, dated 2012).

Data set [1] has as its target protein phosphatase 2A (Homo sapiens, UniProt P67775). The data set is described as follows: Inhibition of protein phosphatase 2A. It is filed as biochemical.
For data set [2], the system named is p-Akt / total Akt in human medulloblastoma DAOY xenografts. The data set is described as follows: Induction of phosphorylated Akt in DAOY cells growing as xenografts in SCID mice (western blot). It is filed as in vivo. The conditions noted are these: 0.03 mg/20 gram mouse, after 4 hours and 24 hours. How it is done:
FIG. 2: Induction of phosphorylated Akt by Compound 100 in DAOY cells growing as xenografts in SCID mice. • SCID mice with human medulloblastoma cells, DAOY, implanted subcutaneously were treated with 0.03 mg/20 gram mouse with Compound 100 or vehicle alone. After 4 hours and 24 hours western blots were made for p-Akt, total Akt, and beta actin. Control cells (C) at both time points (only 24 hour point shown) had only trace amounts of p-Akt and substantial amounts of total Akt and beta actin.
Human medulloblastoma DAOY cells were implanted subcutaneously in SCID mice. Mice were then treated with 0.03 mg/20 gram mouse with Compound 100 or vehicle alone. After 4 hours and 24 hours, western blots were made for phosphorylated Akt (p-Akt), total Akt, and beta actin. Control cells at both time points had only trace amount of p-Akt and substantial amounts of total Akt and beta actin.

Data set [3] deals with p-Akt / total Akt in human glioblastoma cells, U87. The experiment in a line: Induction of phosphorylated Akt in U87 cells in culture (western blot). Format: cell-based. The conditions noted are these: after 4 hours. How it is done: FIG. 3: Induction of phosphorylated Akt by Compound 100 in U87 cells in culture. • The human glioblastoma cells, U87, were exposed to compound 100 or vehicle alone. After 4 hours western blots were made for p-Akt, total Akt, and beta actin.
Human glioblastoma cells, U87, were grown in culture and exposed to Compound 100 or vehicle alone. After 4 hours, western blots were made for p-Akt, total Akt, and beta actin.

Data set [4] deals with acetylated histone 3 and histone 4. The experiment in a line: Acetylation of Histone 3 and Histone 4 in normal mouse brain (western blot). It is filed as in vivo. The note with it: for entry into the brain: mouse, given intraperitoneally, shown by histone acetylation; for acetylation of histone 3 and histone 4 in brain: normal mice, 0.03 mg/20 gram mouse, 4 hours of exposure, compared to control tissue. How it is done:
FIG. 5: Induction of acetylation of Histone 3 and Histone 4 in normal mouse brain by Compound 100 and Compound 102. • Normal mice were treated with Compound 100 and Compound 102, 0.03 mg/20 gram mouse. After 4 hours of exposure, treated and control animals (vehicle alone) animals were sacrificed and western blots for acetylated histone 3 and histone 4 were made.
Normal mice were treated with Compound 100 or Compound 102 at a dose of 0.03 mg/20 gram mouse, or with vehicle. After 4 hours of exposure, treated and control animals were sacrificed and western blots for acetylated histone 3 and histone 4 were made.

Data set [5] relates to p-Akt / total Akt in medulloblastoma cells, DAOY. The experiment in a line: Induction of phosphorylated Akt in DAOY cells in culture (western blot). Format: cell-based, human. The note with it: after 4 hours. How it is done:
FIG. 1: Induction of phosphorylated Akt by Compound 100 in DAOY cells in culture. • The medulloblastoma cells, DAOY, in culture were exposed to Compound 100, Compound 205 or vehicle alone. After 4 hours western blots were made for p-Akt, total Akt, and beta actin.
Medulloblastoma cells, DAOY, were grown in culture and exposed to Compound 100, […] or vehicle alone. After 4 hours western blots were made for p-Akt, total Akt and beta actin.
Background: In western blotting, separated proteins are transferred to a membrane and probed.

Data set [6] has as its system Akt. The data set is described as follows: Akt phosphorylation in the cell lines tested growing as xenografts in SCID mice. Format: in vivo. The note with it: given intraperitoneally. The text has this:
The compounds increase the phosphorylation of several regulatory proteins including Akt. At low doses that are non-toxic to mice, these compounds slightly stimulate cell proliferation and increases phosphorylation of Akt in human cancer cell lines tested including SH-SY5Y.

Data set [7] has as its system p-Akt / total Akt in human glioblastoma U87 xenografts. The experiment in a line: Induction of phosphorylated Akt in U87 cells growing as xenografts in SCID mice (western blot). Format: in vivo. The note with it: 0.03 mg/20 gram mouse, after 4 hours. How it is done:
FIG. 4: Induction of phosphorylated Akt by Compound 100 in U87 cells growing as xenografts in SCID mice. • SCID mice with human glioblastoma cells, U87, implanted subcutaneously were treated with 0.03 mg/20 gram mouse with Compound 100 or vehicle alone. After 4 hours, western blots were made for p-Akt, total Akt, and beta actin.
Human glioblastoma U87 cells were implanted subcutaneously in SCID mice. Mice were then treated with 0.03 mg/20 gram mouse with Compound 100 or vehicle alone. After 4 hours, western blots were made for p-Akt, total Akt, and beta actin.

Data set [8] has as its system HDAC. The data set is described as follows: HDAC inhibition. It is filed as biochemical.
For data set [9], the system named is NMDA type response to glutamate in primary rat cortical neurons. The experiment in a line: Calcium response of cultured neurons to acute glutamate exposure. It is filed as cell-based. The note with it: for calcium response to 200 uM glutamate versus DMSO control: 500 nM compound, 24 h prior to glutamate, single study; for average % increase in response to glutamate exposure: average of 4 separate experiments (FIG. 19). The text has this:
To assess the effects of compound 102 and compound 201, independently, on neuronal function, the ability of the neurons in a culture dish to respond to exposure to glutamate was studied. In vitro, neurons respond to glutamate with the activation of several receptors associated with different transducing mechanisms. The assortment of glutamate sensitive receptors in a given neuronal population depends on maturation and differentiation. After seven days in culture, there is an assortment of glutamate receptors, including the AMPA/Kainate and NMDA receptors. AMPA/Kainate receptors are in general maximally expressed in the first few days in vitro followed by a gradual decline, while NMDA receptor expression increases over time, reaching a maximum after 7 days in vitro. AMPA/Kainate responses to exposure to glutamate as measured by calcium flux are characterized by fast desensitization (i.e. very little measurable calcium increase), while NMDA responses are characterized by an elevation of calcium concentration that persists as long as glutamate is applied. In the absence of test drug, there was variability in glutamate responsiveness dependent on NMDA receptor expression. A typical response of neurons in culture to glutamate characteristic of the NMDA receptors consists of a rapid increase and a high plateau phase of calcium (FIGS. 8-10). […] This modulation is compatible with a positive neurotrophic effect of compound 201.

Data set [10] relates to primary embryonal rat cortical neuronal cells. The data set is described as follows: Survival of primary cortical neurons after environmental stress (growth factor deficient medium 1 hour). It is filed as cell-based. The conditions noted are these: 500 nM, cell counts at 3, 6, 13 and 23 days in culture, n=4. How it is done:
FIG. 6. Photomicrographs of primary embryonal rat cortical neuronal cells at 23 days subjected to environmental stress by exposure to growth factor deficient medium for 1 hour on day 3 of culture.
FIG. 7. Average number of primary embryonal rat cortical neuronal cells at 3, 6, 13, and 23 days in culture (n=4). • All cultures were exposed to growth factor deficient medium for 1 hour on day 3 followed by of culture in complete medium containing no supplement (control), drug vehicle (0.05% DMSO), compound 102 (500 nM), or compound 201 (500 nM).
Neurons were chronically or acutely treated with each compound and exposed to environmental stress (replacement of the culture medium with a saline PBS based solution for one hour followed by removal of the PBS medium and restoration of standard neuronal culture medium) and then observed for survival (FIG. 6).

The test system of data set [11] is primary rat cortical neurons. The experiment in a line: Neurite extension after Calcein staining. It is filed as cell-based. The conditions noted are these: 250 and 500 nM. How it is done:
Neurite extension was evaluated after Calcein staining using commercially available software.

“Also recorded” adds a separate entry of the source.

Chain of protein phosphatase 2A (P67775 whole entry): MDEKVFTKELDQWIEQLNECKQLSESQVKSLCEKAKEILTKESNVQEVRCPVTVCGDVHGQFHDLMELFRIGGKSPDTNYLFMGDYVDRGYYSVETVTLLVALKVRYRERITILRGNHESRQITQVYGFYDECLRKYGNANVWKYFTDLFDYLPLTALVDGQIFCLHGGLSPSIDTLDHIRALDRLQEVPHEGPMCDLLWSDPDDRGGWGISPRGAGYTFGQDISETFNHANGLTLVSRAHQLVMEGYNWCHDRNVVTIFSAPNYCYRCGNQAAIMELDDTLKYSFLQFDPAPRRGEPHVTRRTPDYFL

Take `COc1ccc(CCN2CCC(NC(=O)C3C(C(=O)O)[C@H]4CC[C@@H]3O4)CC2)cc1` (stereo partly shown) [Compound 104]: the “inhibition of protein phosphatase 2A” value in data set [1] is on record as “inhibit protein phosphatase 2A”.
Still for that read-out and setting: to `CN(C)CCNC(=O)C1C(C(=O)O)[C@H]2CC[C@@H]1O2` (stereo partly shown) [Compound 106] belongs “inhibit protein phosphatase 2A”.
Same read-out and setting: the value for `O=C(O)C1C(C(=O)N2CCN(Cc3ccccc3)CC2)[C@@H]2CC[C@H]1O2` (stereo partly shown) [Compound 103] was “inhibit protein phosphatase 2A”; that for `CCN1CCN(C(=O)C2C(C(=O)O)[C@H]3CC[C@@H]2O3)CC1` (stereo partly shown) [Compound 105] was “inhibit protein phosphatase 2A”.
Still for that read-out and setting: the value for `COC(=O)C1C(C(=O)N2CCN(C)CC2)[C@@H]2CC[C@H]1O2` (stereo partly shown) [Compound 107] was “inhibit protein phosphatase 2A”.
On to `CN1CCN(C(=O)C2C(C(=O)O)[C@H]3CC[C@@H]2O3)CC1` (stereo partly shown) [Compound 100], for which the “p-Akt (western blot)” value in data set [2], in data set [3], in data set [5] and in data set [7] was “induction of p-Akt” throughout. For the same molecule, the “total Akt relative to beta actin (western blot)” value in data set [2], in data set [3], in [5] and in [7] was “increase in total Akt relative to beta actin” throughout. The “entry into the brain” value in data set [4] is listed as “properties that enhance their entry into the brain”. Moreover, in data set [4], the “acetylation of histone 3 and histone 4 in brain” value is reported as “increased acetylation of the histones”. Also, the “Akt phosphorylation in xenografts” value in data set [6] is “increased Akt phosphorylation”. The “inhibition of protein phosphatase 2A” value in data set [1] is “inhibit protein phosphatase 2A”.
Turning to `O=C(CCCCCNC(=O)c1ccccc1S)Nc1cccnc1` [Compound 205], the “p-Akt (western blot)” value in [5] was “little effect; also recorded: no effect”. In [1], the “inhibition of protein phosphatase 2A” value is given as “no anti-PP2A activity”. In addition, the HDAC inhibition entry in [8] is recorded as “investigational histone deacetylase inhibitor”.
As to `CN1CCN(C(=O)C2C(C(=O)S)[C@H]3CC[C@@H]2O3)CC1` (stereo partly shown) [Compound 108], the “inhibition of protein phosphatase 2A” value in data set [1] is given as “inhibit protein phosphatase 2A”.
As for `O=C(CCCCCNC(=O)c1ccccc1S)Nc1ccccc1` [Compound 201], in data set [9], the “calcium response to 200 uM glutamate versus DMSO control” value is listed as “statistically significant increase in the NMDA type response to glutamate; also recorded: significantly enhanced the response to glutamate” and the “average % increase in response to glutamate exposure” value is recorded as “significantly enhanced the response to glutamate”. In data set [10], the “neuronal cell number / protection of cell integrity after stress” value is on record as “marked neurotrophic effects as evidenced by maintenance for up to 21 days neuronal cell numbers; also recorded: statistically significant (p<=0.01) protection of cell integrity”. In [11], the process length entry is “increased process length” and the total neurite outgrowth result was “increased total neurite outgrowth”. Also, the HDAC inhibition result in [8] is “class I and II HDAC inhibitor”.
Turning to `CC(C)(C)OC(=O)N1CCN(C(=O)C2C(C(=O)O)[C@H]3CC[C@@H]2O3)CC1` (stereo partly shown) [Compound 102], in [9], the “calcium response to 200 uM glutamate versus DMSO control” value was “statistically significant increase in the NMDA type response to glutamate; also recorded: significantly enhanced the response to glutamate” and the “average % increase in response to glutamate exposure” value is “smaller but statistically significant effect; also recorded: less effective but still had a significant effect”. In addition, the “neuronal cell number / protection of cell integrity after stress” value in data set [10] was “little effect on cell number”. In [4], the “entry into the brain” value is reported as “properties that enhance their entry into the brain”; the “acetylation of histone 3 and histone 4 in brain” value is reported as “increased acetylation of the histones”. For the same molecule, in [6], the “Akt phosphorylation in xenografts” value is “increased Akt phosphorylation”. In addition, the “inhibition of protein phosphatase 2A” value in data set [1] was “inhibit protein phosphatase 2A; also recorded: protein phosphatase 2A inhibitor”. Moreover, in data set [11], the process length result is on record as “increased process length” and the total neurite outgrowth entry is “increased total neurite outgrowth”.
For the molecule `O=C(O)C1C(C(=O)N2CCOCC2)[C@@H]2CC[C@H]1O2` (stereo partly shown) [Compound 111], the “inhibition of protein phosphatase 2A” value in data set [1] was “inhibit protein phosphatase 2A”.
